Measured values: PMC4826333 (Journal of medicinal chemistry, 2015)

Key:
[1] = system: PC-3, DU-145, LNCaP, and HeLa; experiment: Trypan blue cytotoxicity, panel of cancer cell lines; conditions: four cancer cell lines; for cytotoxicity as compared with curcumin: 1 and 10 μM
PC-3, DU145, LNCaP, HeLa = experiment: Relative potency versus curcumin over the cancer cell lines, WST-1 and TB; type: cell-based, human; conditions: in the tested cancer cell lines

| Structure (SMILES) | cytotoxicity as compared with curcumin [1] | activity at 10 μM concentration [1] | times more potent than curcumin (PC-3, DU145, LNCaP, HeLa) |
| --- | --- | --- | --- |
| Cn1cncc1/C=C/C(=O)/C=C/c1cncn1C [Compound 16, (1E,4E)-1,5-Bis(1-methyl-1H-imidazol-5-yl)penta-1,4-dien-3-one] | as effective (or slightly more effective) as curcumin |  |  |
| Cn1cc(/C=C/C(=O)/C=C/c2cnn(C)c2)cn1 [Compound 17, (1E,4E)-1,5-Bis(1-methyl-1H-pyrazol-4-yl)penta-1,4-dien-3-one] | did not show increased or similar cytotoxicity | almost inactive |  |
| Cn1nc(C(F)(F)F)c(/C=C/C(=O)/C=C/c2c(C(F)(F)F)nn(C)c2Cl)c1Cl [Compound 18, (1E,4E)-1,5-Bis(5-chloro-1-methyl-3-(trifluoromethyl)-1H-pyrazol-4-yl)penta-1,4-dien-3-one] | as effective (or slightly more effective) as curcumin |  |  |
| O=C(/C=C/c1cocn1)/C=C/c1cocn1 [Compound 20, (1E,4E)-1,5-Bis(oxazol-4-yl)penta-1,4-dien-3-one] | as effective (or slightly more effective) as curcumin |  |  |
| Cc1nc(C(F)(F)F)c(/C=C/C(=O)/C=C/c2sc(C)nc2C(F)(F)F)s1 [Compound 24, (1E,4E)-1,5-Bis(2-methyl-4-(trifluoromethyl)thiazol-5-yl)-penta-1,4-dien-3-one] |  |  | 11–36 times |
| O=C(/C=C/c1cccnc1)/C=C/c1cccnc1 [Compound 27, (1E,4E)-1,5-Di(pyridin-3-yl)penta-1,4-dien-3-one] | as effective (or slightly more effective) as curcumin |  |  |
| O=C(/C=C/c1ccc2ccccc2n1)/C=C/c1ccc2ccccc2n1 [Compound 31, (1E,4E)-1,5-Di(quinolin-2-yl)penta-1,4-dien-3-one] | as effective (or slightly more effective) as curcumin |  |  |
| O=C(/C=C/c1ccnc2ccccc12)/C=C/c1ccnc2ccccc12 [Compound 32, (1E,4E)-1,5-Di(quinolin-4-yl)penta-1,4-dien-3-one] | as effective (or slightly more effective) as curcumin |  |  |
| O=C(/C=C/c1cc2ccccc2nc1Cl)/C=C/c1cc2ccccc2nc1Cl [Compound 33, (1E,4E)-1,5-Bis(2-chloroquinolin-3-yl)penta-1,4-dien-3-one] | did not show increased or similar cytotoxicity | almost inactive |  |
| Cc1nc(/C=C/C(=O)/C=C/c2nc(C)c(-c3ccncc3)s2)sc1-c1ccncc1 [Compound 34, (1E,4E)-1,5-Bis(4-methyl-5-(pyridin-4-yl)thiazol-2-yl)penta-1,4-dien-3-one] | did not show increased or similar cytotoxicity | almost inactive |  |
| O=C(/C=C/c1nc2ccccc2s1)/C=C/c1nc2ccccc2s1 [Compound 35, (1E,4E)-1,5-Bis(benzo[d]thiazol-2-yl)penta-1,4-dien-3-one] | as effective (or slightly more effective) as curcumin |  |  |
